Biological target: PolQ ATPase enzyme (1-894) (Homo sapiens (Human), UniProt O75417)
Assay: Polθ ATPase enzymatic assay (0.5 nM enzyme concentration), ADP-Glo
Type: biochemical
Conditions: 0.5 nM PolQ ATPase enzyme (1-894); average IC50
Experimental: PolQ ATPase enzyme (1-894) at 0.5 nM is incubated with a 10-point concentration response of inhibitors for 15 min at rt in the following buffer: 50 mM Tris Cl pH 7.5, 10% glycerol, 5 mM DTT, 10 mM MgCl2, 0.1 mg/ml BSA. Following pre-incubation with inhibitors, DNA (Fork C) at 20 nM and ATP at 100 μM are added to start the reaction. Enzymatic reaction proceeds at rt for 180 min. ATP consumption is measured using the ADP-Glo assay from Promega. Luminescence is read on the Envision and IC50 are determined using the variable slope 4-parameters equation.
Oligos are annealed by heating at 95° C. for 5 min in the following buffer (10 mM Tris-HCl PH7.5, 50 mM NaCl, 1 mM EDTA) and cooled to rt. […]

Sequence of PolQ ATPase enzyme (1-894) (O75417 1-894): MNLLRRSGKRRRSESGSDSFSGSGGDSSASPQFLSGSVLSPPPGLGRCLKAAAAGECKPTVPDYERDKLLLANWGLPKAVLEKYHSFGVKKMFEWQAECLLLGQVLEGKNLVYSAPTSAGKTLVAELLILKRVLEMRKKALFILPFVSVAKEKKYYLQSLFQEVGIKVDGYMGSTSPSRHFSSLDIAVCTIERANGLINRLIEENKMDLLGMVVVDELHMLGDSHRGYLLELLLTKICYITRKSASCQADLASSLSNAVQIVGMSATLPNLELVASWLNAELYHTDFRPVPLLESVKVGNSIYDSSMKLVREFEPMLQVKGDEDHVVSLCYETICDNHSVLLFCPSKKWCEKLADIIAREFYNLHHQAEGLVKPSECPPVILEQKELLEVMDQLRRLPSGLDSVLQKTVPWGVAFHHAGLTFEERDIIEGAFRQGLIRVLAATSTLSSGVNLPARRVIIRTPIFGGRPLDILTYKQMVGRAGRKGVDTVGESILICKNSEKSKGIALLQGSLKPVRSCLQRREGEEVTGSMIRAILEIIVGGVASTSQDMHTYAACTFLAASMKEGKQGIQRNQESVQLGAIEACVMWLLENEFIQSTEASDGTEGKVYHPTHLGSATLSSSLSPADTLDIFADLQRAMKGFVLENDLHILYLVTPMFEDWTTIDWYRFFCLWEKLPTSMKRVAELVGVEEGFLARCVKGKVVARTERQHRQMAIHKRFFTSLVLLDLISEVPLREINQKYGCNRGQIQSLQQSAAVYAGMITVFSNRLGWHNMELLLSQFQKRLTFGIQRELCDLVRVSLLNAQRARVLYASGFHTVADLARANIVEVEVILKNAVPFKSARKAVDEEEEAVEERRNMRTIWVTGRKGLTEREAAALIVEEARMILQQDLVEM

Structure (SMILES)	IC50 [nM]
COc1cnc(C(F)F)cc1-c1cc(C2C[C@@H]2C(=O)N(C)C)ncc1C(=O)Nc1nnc(C#CC2CC2)s1 (mixture of isomers) [Compound 361]	1.9
COc1cnc(C(F)F)cc1-c1cc(C2C[C@@H]2C(=O)N(C)C)ccc1C(=O)Nc1nnc(C#CC2CC2)s1 (mixture of isomers) [Compound 362]	1.4
COc1cnc(C(F)F)cc1-c1cc(C2C[C@H]2C(=O)N(C)C)ccc1C(=O)Nc1nnc(C#CC2CC2)s1 (mixture of isomers) [Compound 363]	< 0.25
C#C[C@H]1CC1c1nnc(NC(=O)c2ccc(-c3nnc(C)o3)cc2-c2cc(C(F)F)ncc2OC)s1 (mixture of isomers) [Compound 373]	4.6
COc1cnc(C(F)F)cc1-c1cc(N2CC3CC(C3)C2=O)ncc1C(=O)Nc1nnc(C#CC2CC2)s1 (racemic) [Compound 381]	< 0.25
COc1cnc(C(F)F)cc1-c1cc(N2CC3CC3CC2=O)ncc1C(=O)Nc1nnc(C#CC2CC2)s1 (racemic) [Compound 388]	< 0.25
COc1cnc(C(F)F)cc1-c1cc(C2CC(C)CCC2=O)ncc1C(=O)Nc1nnc(C#CC2CC2)s1 (racemic) [Compound 389]	< 0.25
COc1cnc(C(F)F)cc1-c1cc(N2CCC3CCC3C2=O)ncc1C(=O)Nc1nnc(C#CC2CC2)s1 (racemic) [Compound 443]	< 0.25
COc1cnc(C(F)F)cc1-c1cc(N2CCC(C(C)(C)C)CC2=O)ncc1C(=O)Nc1nnc(C#CC2CC2)s1 (racemic) [Compound 444]	< 0.25
COc1cnc(C(F)F)cc1-c1cc(N2CCC(C)CCC2=O)ncc1C(=O)Nc1nnc(C#CC2CC2)s1 (racemic) [Compound 485]	0.7
COc1cnc(C(F)F)cc1-c1cc(-n2ccc(C)cc2=O)ncc1C(=O)Nc1nnc([C@H]2C[C@@H]2C#N)s1 (racemic) [Compound 539]	33.3
COc1cnc(C(F)F)cc1-c1cc(C#CC2CCCN(C)C2)ncc1C(=O)Nc1nnc(C#CC2CC2)s1 (racemic) [Compound 556]	1.8
COc1cnc(C(F)F)cc1-c1cc(-n2ccc(C)cc2=O)ncc1C(=O)Nc1nnc(C#CC2CC23CC3)s1 (racemic) [Compound 557]	< 0.25
COc1cnc(C(F)F)cc1-c1cc(C#CCC2CCNC2=O)ncc1C(=O)Nc1nnc(C#CC2CC2)s1 (racemic) [Compound 570]	< 0.25
COc1cnc(C(F)F)cc1-c1cc(-n2ccc(C)cc2=O)ncc1C(=O)Nc1nnc([C@H]2C[C@@H]2c2cncs2)s1 (racemic) [Compound 579]	0.33
COc1cnc(C(F)F)cc1-c1cc(-n2ccc(C)cc2=O)ncc1C(=O)Nc1nnc([C@H]2C[C@@H]2C2CC2)s1 (racemic) [Compound 580]	0.34
COc1cnc(C(F)F)cc1-c1cc(-n2ccc(C)cc2=O)ncc1C(=O)Nc1nnc([C@H]2C[C@@H]2C2CCOCC2)s1 (racemic) [Compound 581]	0.99
COc1cnc(C(F)F)cc1-c1cc(-n2ccc(C)cc2=O)ncc1C(=O)Nc1nnc([C@H]2C[C@@H]2c2ccnn2C)s1 (racemic) [Compound 582]	1.3
COc1cnc(C(F)F)cc1-c1cc(-n2ccc(C)cc2=O)ncc1C(=O)Nc1nnc([C@H]2C[C@@H]2c2ccn(C)n2)s1 (racemic) [Compound 583, 2″-(difluoromethyl)-5″-methoxy-4-methyl-N-(5-((1S,2S)-2-(1-methyl-1H-pyrazol-3-yl)cyclopropyl)-1,3,4-thiadiazol-2-yl)-2-oxo-2H-[1,2′:4′,4″-terpyridine]-5′-carboxamide]	< 0.25
COc1cnc(C(F)F)cc1-c1cc(-n2ccc(C)cc2=O)ncc1C(=O)Nc1nnc([C@H]2C[C@@H]2c2cnn(C)c2)s1 (racemic) [Compound 584]	0.51
C=C[C@H]1C[C@@H]1c1nnc(NC(=O)c2cnc(-n3ccc(C)cc3=O)cc2-c2cc(C(F)F)ncc2OC)s1 (racemic) [Compound 585]	0.47
COc1cnc(C(F)F)cc1-c1cc(-n2ccc(C)cc2=O)ncc1C(=O)Nc1nnc([C@H]2C[C@@H]2C(C)C)s1 (racemic) [Compound 586]	1.2
COc1cnc(C(F)F)cc1-c1cc(-n2ccc(C)cc2=O)ncc1C(=O)Nc1nnc([C@H]2C[C@@H]2c2ccccn2)s1 (racemic) [Compound 592]	0.48
C#C[C@@H]1CC1c1nnc(NC(=O)c2cnc(-n3ccc(C)cc3=O)cc2-c2cc(C(F)F)ncc2OC)s1 (mixture of isomers) [Compound 593]	9.9
COc1cnc(C(F)F)cc1-c1cc(-n2ccc(C)cc2=O)ncc1C(=O)Nc1nnc(C(C)OC)s1 (racemic) [Compound 604]	30
COc1cnc(C(F)F)cc1-c1cc(-n2ccc(C)cc2=O)ncc1C(=O)Nc1nnc(C2CC2(F)Cl)s1 (racemic) [Compound 605]	4

Structure (SMILES)	IC50 [nM]
COc1cnc(C(F)F)cc1-c1cc(C#CCN2CCOCC2)ncc1C(=O)Nc1nnc([C@H]2C[C@@H]2C)s1 (racemic) [Compound 606]	4
COc1cnc(C(F)F)cc1-c1cc(-n2ccc(OC3CCN(C)C3)cc2=O)ncc1C(=O)Nc1nnc(C#CC2CC2)s1 (racemic) [Compound 612]	0.85
COc1cnc(C(F)F)cc1-c1cc(-n2ccc(OC3CCN(C)C3)cc2=O)ncc1C(=O)Nc1ncc(C#CC2CC2)s1 (racemic) [Compound 615]	1.1
COc1cnc(C(F)F)cc1-c1cc(C#CCN2CCCC2=O)ncc1C(=O)Nc1nnc([C@H]2C[C@@H]2C)s1 (racemic) [Compound 618]	0.81
COc1cnc(C(F)F)cc1-c1cc(C#CC(C)(C)O)ncc1C(=O)Nc1nnc([C@H]2C[C@@H]2C)s1 (racemic) [Compound 619]	4.9
COc1cnc(C(F)F)cc1-c1cc(C#CCC(C)(C)O)ncc1C(=O)Nc1nnc([C@H]2C[C@@H]2C)s1 (racemic) [Compound 620]	3.2
COc1cnc(C(F)F)cc1-c1cc(C#CCC(C)(C)O)ncc1C(=O)Nc1nnc([C@H]2C[C@@H]2c2ccn(C)n2)s1 (racemic) [Compound 622]	1.4
COCCC#Cc1cc(-c2cc(C(F)F)ncc2OC)c(C(=O)Nc2nnc([C@H]3C[C@@H]3C)s2)cn1 (racemic) [Compound 625]	0.42
COc1cnc(C(F)F)cc1-c1cc(-n2ccc(C)cc2=O)ncc1C(=O)Nc1nnc(C2C[C@@H]2C2CCCO2)s1 (mixture of isomers) [Compound 633]	0.95
COc1cnc(C(F)F)cc1-c1cc(C#CCN2CCOCC2)ncc1C(=O)Nc1nnc([C@H]2C[C@@H]2c2cscn2)s1 (racemic) [Compound 634, 2′-(difluoromethyl)-5′-methoxy-6-(3-morpholinoprop-1-yn-1-yl)-N-(5-((1S,2S)-2-(thiazol-4-yl)cyclopropyl)-1,3,4-thiadiazol-2-yl)-[4,4′-bipyridine]-3-carboxamide]	0.86
COc1cnc(C(F)F)cc1-c1cc(-n2ccc(C)cc2=O)ncc1C(=O)Nc1nnc(C2C[C@@H]2c2cscn2)s1 (mixture of isomers) [Compound 635]	0.25
CC#C[C@H]1CC1c1nnc(NC(=O)c2cnc(-n3ccc(C)cc3=O)cc2-c2cc(C(F)F)ncc2OC)s1 (mixture of isomers) [Compound 637]	< 0.25
CC#C[C@H]1CC1c1nnc(NC(=O)c2cnc(-n3cccc(F)c3=O)cc2-c2cc(C(F)F)ncc2OC)s1 (mixture of isomers) [Compound 638]	< 0.25
C#C[C@@]1(F)CC1c1nnc(NC(=O)c2cnc(-n3ccc(C)cc3=O)cc2-c2cc(C(F)F)ncc2OC)s1 (mixture of isomers) [Compound 639]	0.47
COc1cnc(C(F)F)cc1-c1cc(C#CCN2CCOCC2)ncc1C(=O)Nc1nnc([C@H]2C[C@@H]2c2cncs2)s1 (racemic) [Compound 640]	0.54
COc1cnc(C(F)F)cc1-c1cc(C#CCN2CCCC2=O)ncc1C(=O)Nc1nnc([C@H]2C[C@@H]2c2cscn2)s1 (racemic) [Compound 641]	< 0.25
COc1cnc(C(F)F)cc1-c1cc(C#CCN2CCCC2=O)ncc1C(=O)Nc1nnc([C@H]2C[C@@H]2c2cncs2)s1 (racemic) [Compound 643]	0.3
C#C[C@@H]1CC1c1nnc(NC(=O)c2cnc(-n3ccc(C)cc3=O)cc2-c2cc(C(F)F)ncc2OC)s1 (single isomer, unassigned) [Compound 480]	1.7
C#C[C@H]1CC1c1nnc(NC(=O)c2cnc(N3CCOC4(CC4)C3=O)cc2-c2cc(C(F)F)ncc2OC)s1 (single isomer, unassigned) [Compound 588]	0.75
C#C[C@H]1CC1c1nnc(NC(=O)c2cnc(-n3ccc(C)cc3=O)cc2-c2cc(Cl)ncc2OC)s1 (single isomer, unassigned) [Compound 590]	< 0.25
C#C[C@H]1C[C@@H]1c1nnc(NC(=O)c2cnc(-n3ccc(OC4CCN(C)C4)cc3=O)cc2-c2cc(C(F)F)ncc2OC)s1 (single isomer, unassigned) [Compound 626]	3.5
C#C[C@H]1CC1c1nnc(NC(=O)c2cnc(-n3ccc(OC)cc3=O)cc2-c2cc(C(F)F)ncc2OC)s1 (single isomer, unassigned) [Compound 629]	1
C#C[C@H]1CC1c1nnc(NC(=O)c2cnc(-n3ncc(C)cc3=O)cc2-c2cc(C(F)F)ncc2OC)s1 (single isomer, unassigned) [Compound 632]	0.35
C#C[C@H]1CC1c1nnc(NC(=O)c2cnc(N3CCN(C(=O)OC)C4(CC4)C3=O)cc2-c2cc(C(F)F)ncc2OC)s1 (single isomer, unassigned) [Compound 636]	0.33
COc1cnc(C(F)F)cc1-c1cc(-n2ncc(C)cc2=O)ncc1C(=O)Nc1nnc(C2C[C@@H]2C)s1 (single isomer, unassigned) [Compound 642]	0.72
COc1ccc(C(F)(F)F)cc1-c1cnccc1C(=O)Nc1nnc(C2C[C@H]2c2ccc(C#N)cc2)s1 (stereo partly shown) [Compound 30]	0.76
